In publication PMC6423129, “Activity and structural analysis of GRL-117C: a novel small molecule CCR5 inhibitor active against R5-tropic HIV-1s” (Scientific Reports, 2019):

Legend:
CCR5 = molecular target: T1, CCR5 (Homo sapiens, UniProt P51681); assay: Inhibition of 125I-MIP-1β binding to CCR5 (CCR5+ CHO cells)
T1 construct: expressed in transfected cells; host or cells: Chinese hamster ovary (CHO) cells expressing CCR5
Experimental: In order to determine whether GRL derivatives block the binding of CC-chemokines to CCR5, we conducted a CC-chemokine binding inhibition assay using ^125I-labeled CC-chemokines (^125I-RANTES, ^125I-MIP-1α, and ^125I-MIP-1β) and CCR5 expressing cells.
CCR5^+ CHO cells were incubated with (A) ^125I-MIP-1α, (B) ^125I-MIP-1β, and (C) ^125I-RANTES (200 ng/ml) in the presence or absence of varying concentrations of CCR5 inhibitors. Data are shown as means ± s.d. of three independent experiments.
The inhibition of the binding of ^125I-labeled CC-chemokines ([^125I] RANTES, [^125I] MIP-1α, or [^125I] MIP-1β) to CCR5 by various CCR5 inhibitors was measured as previously described. Calcium flux inhibition assays were also performed with CCR5 inhibitors, and were carried out with the Fluo-4 Direct^TM calcium reagent (Invitrogen); assays were conducted as previously described with minor modifications. In brief, CHO-CCR5 cells (5 × 10^5 cells) were exposed to Fluo-4 Direct^TM calcium reagent for 60 min at 37 °C in RPMI containing 5% FCS. Cells were then incubated with the test compound for 30 min at varying concentrations. Subsequently, cells were exposed to either MIP-1α, MIP-1β, or RANTES at 200 ng/ml. Relative increases in cytosolic Ca^2+ levels after chemokine exposure were determined with flow cytometry (FACSCalibur, BD Biosciences), and IC50 values of cytosolic Ca^2+ mobilization (Ca^2+ flux) were compared with the Ca^2+ flux level in drug-free control samples.

pCH058.c/2960 = assay: MAGI assay, T/F HIV-1 clone pCH058.c/2960; assay type: cell-based; conditions: Human immunodeficiency virus 1, MAGI
From the text: (§1) We also examined the activity of GRL-compounds against Transmitter/founder (T/F) HIV-1 viruses. T/F viruses are involved in the initial infection. It is considered that T/F viruses virtually always use CCR5 rather than CXCR4 and infect T cells but not macrophages because […] of CD4 is needed to mediate virus entry for the initial transmission[20]–[24]. […] We obtained four HIV-1 T/F infectious clones. We determined the antiviral activity of GRL-117C, GRL-10007C and GRL-10018C on these HIV-1 clones using MAGI assay.
(§2) MAGI-CCR5 cells[18] were maintained in DMEM supplemented with 10% fetal calf serum (FCS: Gemini Bio-Products, West Sacramento, CA), 200 μg/ml G418, 100 μg/ml hygromycin B, and 100 μg/ml zeomycin. The Chinese hamster ovary (CHO) cells expressing CCR5[19] were maintained in Ham’s F-12 medium (GIBCO-BRL, Rockville, MD) supplemented with 10% FCS, 50 U/ml penicillin, and 50 μg/ml streptomycin in the presence of 5 μg/ml blasticidin S hydrochloride. TZM-bl cells were obtained from the NIH AIDS Reagent Program, and were cultured in DMEM with 10% FCS. Peripheral blood mononuclear cells (PBMCs) were isolated from buffy coats of HIV-1 seronegative individuals, and were activated with 10 μg/ml phytohemagglutinin (PHA) prior to use[16]. A laboratory wild-type R5-HIV-1 strain (HIV-1Ba-L)[37] was employed for drug susceptibility assays. AD101 (experimental CCR5 inhibitor) and VVC-resistant HIV clones[7],[8] were provided by Dr. John P. Moore of Cornell University for this study. The clones were propagated with activated PBMCs, and were used for the assays. […] The following reagents (plasmids) for T/F HIV-1 viruses[22],[24] were obtained through the NIH AIDS Reagent Program, Division of AIDS, NIAID, NIH: pCH040.c/2625 (cat# 11740), pCH106.c/2633 (cat# 11743), pTHRO.c/2626 (cat# 11745), and pCH058.c/2960 (cat# 11856), from Dr. John Kappes and Dr. Christina Ochsenbauer.
(§3) Antiviral assays using PHA-PBMCs (p24 assay) were conducted as previously reported[16],[38]. In brief, PHA-PBMCs (1 × 10^6/ml) were exposed to 50 TCID50 of HIV-1Ba-L or drug-resistant HIV-1 infectious clones in the presence or absence of various concentrations of drugs; 10-fold serial dilutions were performed in 96-well microculture plates. The amount of p24 antigens produced by the cells was determined on day 7 in the culture via a commercially available ELISA kit (PerkinElmer). The p24 production level in drug-free control cell cultures was used as the reference. […] Antiviral assays using MAGI-CCR5 cells (MAGI assay) were conducted as previously reported[16],[39]. Single-round virus infection assays using TZM-bl cells infected with R5-HIV-1s (HIV-1YU2, HIV-1KP-5pc, and HIV-1KP-5mvcR)[10] were also conducted as previously described.

R5-HIV-1BaL = assay: p24 assay using PBMCs and R5-HIV-1BaL; assay type: cell-based; conditions: Human immunodeficiency virus 1, BAL, PBMC, 168 h, Ba-L (PBMCs), day 7
Experimental: MAGI-CCR5 cells[18] were maintained in DMEM supplemented with 10% fetal calf serum (FCS: Gemini Bio-Products, West Sacramento, CA), 200 μg/ml G418, 100 μg/ml hygromycin B, and 100 μg/ml zeomycin. The Chinese hamster ovary (CHO) cells expressing CCR5[19] were maintained in Ham’s F-12 medium (GIBCO-BRL, Rockville, MD) supplemented with 10% FCS, 50 U/ml penicillin, and 50 μg/ml streptomycin in the presence of 5 μg/ml blasticidin S hydrochloride. TZM-bl cells were obtained from the NIH AIDS Reagent Program, and were cultured in DMEM with 10% FCS. Peripheral blood mononuclear cells (PBMCs) were isolated from buffy coats of HIV-1 seronegative individuals, and were activated with 10 μg/ml phytohemagglutinin (PHA) prior to use[16]. A laboratory wild-type R5-HIV-1 strain (HIV-1Ba-L)[37] was employed for drug susceptibility assays. AD101 (experimental CCR5 inhibitor) and VVC-resistant HIV clones[7],[8] were provided by Dr. John P. Moore of Cornell University for this study. The clones were propagated with activated PBMCs, and were used for the assays. A clinical HIV-1 strain, HIV-1KP-5pc, and an MVC-resistant isolate, HIV-1KP-5mvcR, were prepared and used for antiviral assays, as previously described[10],[38]. The following reagents (plasmids) for T/F HIV-1 viruses[22],[24] were obtained through the NIH AIDS Reagent Program, Division of AIDS, NIAID, NIH: pCH040.c/2625 (cat# 11740), pCH106.c/2633 (cat# 11743), pTHRO.c/2626 (cat# 11745), and pCH058.c/2960 (cat# 11856), from Dr. John Kappes and Dr. Christina Ochsenbauer.
as §3

pTHRO.c/2626 = assay: MAGI assay, T/F HIV-1 clone pTHRO.c/2626; assay type: cell-based; conditions: Human immunodeficiency virus 1, MAGI
From the text: as §1, §2, §3

T1 sequence (P51681 whole entry): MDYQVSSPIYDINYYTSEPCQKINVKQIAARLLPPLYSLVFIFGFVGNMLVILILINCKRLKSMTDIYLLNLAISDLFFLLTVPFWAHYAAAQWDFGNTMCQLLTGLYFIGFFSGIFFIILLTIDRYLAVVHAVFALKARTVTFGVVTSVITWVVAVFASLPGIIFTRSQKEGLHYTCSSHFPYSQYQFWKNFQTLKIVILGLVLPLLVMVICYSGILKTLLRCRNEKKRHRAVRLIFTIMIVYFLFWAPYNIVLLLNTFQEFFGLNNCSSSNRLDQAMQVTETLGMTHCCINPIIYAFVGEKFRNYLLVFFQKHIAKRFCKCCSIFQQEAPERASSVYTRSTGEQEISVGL

C=CCN(C(=O)OCc1ccc([N+](=O)[O-])cc1)C1CC2CCC(C1)N2CCC(C)(CN(C)S(=O)(=O)c1ccccc1)c1ccccc1 (centres unmarked) [GRL-117C]
EC50 (CCR5): 2 nM | IC50 (pCH058.c/2960): 3.2 ± 1 nM | IC50 (R5-HIV-1BaL): 8.1 nM | IC90 (R5-HIV-1BaL): 48.3 nM | IC50 (pTHRO.c/2626): 2.1 ± 0.2 nM
